According to ChEMBL document CHEMBL1667832, “Potent and selective cyclohexyl-derived imidazopyrazine insulin-like growth factor 1 receptor inhibitors with in vivo efficacy” (Bioorg Med Chem Lett, 2011):

Assays:
[1] = target: Cytochrome P450 2C9 (Homo sapiens, UniProt P11712); test: Inhibition of CYP2C9; assay type: ADME
[2] = Permeability of the compound at pH 5 by PAMPA; assay type: ADME; details: read-out: permeability
[3] = target: T1, Cytochrome P450 1A2 (Homo sapiens, UniProt P05177); test: Inhibition of CYP1A2; assay type: ADME
T1 sequence (P05177 whole entry): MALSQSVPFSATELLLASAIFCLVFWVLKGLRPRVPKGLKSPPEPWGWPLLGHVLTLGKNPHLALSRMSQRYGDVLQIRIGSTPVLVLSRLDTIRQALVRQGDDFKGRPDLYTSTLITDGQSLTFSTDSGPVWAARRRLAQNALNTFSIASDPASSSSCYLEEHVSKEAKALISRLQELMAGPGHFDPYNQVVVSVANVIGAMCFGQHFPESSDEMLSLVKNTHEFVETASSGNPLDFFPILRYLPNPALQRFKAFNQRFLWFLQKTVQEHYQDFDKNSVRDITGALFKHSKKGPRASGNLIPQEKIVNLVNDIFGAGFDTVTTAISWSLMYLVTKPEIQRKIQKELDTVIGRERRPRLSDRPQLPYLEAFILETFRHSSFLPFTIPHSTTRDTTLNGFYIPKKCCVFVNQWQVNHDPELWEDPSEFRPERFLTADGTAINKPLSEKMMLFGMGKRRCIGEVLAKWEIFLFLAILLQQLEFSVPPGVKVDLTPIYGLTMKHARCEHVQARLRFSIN

[4] = Clearance in mouse at 5 mg/kg, iv; assay type: ADME, organism-based; parameters: dose 5 mg/kg, route intravenous; details: in vivo
[5] = Physiological stability of the compound in simulated intestinal fluids assessed as formation of 4-(8-amino-1-(8-fluoro-2-phenylquinolin-7-yl)imidazo[1,5-a]pyrazin-3-yl)cyclohexanecarboxylic acid at 2 uM; assay type: physicochemical; details: simulated gi fluid
[6] = AUC in mouse at 25 mg/kg, po; assay type: ADME, organism-based; parameters: dose 25 mg/kg, route oral; details: plasma
[7] = system: Mus musculus; test: Toxicity in human GEO cells xenografted nu/nu CD-1 mouse assessed as mortality at 60 mg/kg, po qd for 14 days; assay type: organism-based; parameters: dose 60 mg/kg, route oral; details: in vivo, 336 h
[8] = Cmax in mouse at 25 mg/kg, po; assay type: ADME, organism-based; parameters: dose 25 mg/kg, route oral; details: in vivo
[9] = Permeability of the compound at pH 7.4 by PAMPA; assay type: ADME; details: read-out: permeability
[10] = Antitumor activity against human GEO cells xenografted in nu/nu CD-1 mouse assessed as tumor growth inhibition at 60 mg/kg, po qd for 14 days; assay type: functional; details: 336 h, read-out: TGI
[11] = system: Mus musculus; test: Toxicity in human GEO cells xenografted nu/nu CD-1 mouse assessed as effect on blood glucose level at 60 mg/kg, po qd for 14 days; assay type: organism-based; parameters: dose 60 mg/kg, route oral; details: in vivo, 336 h
[12] = target: Cytochrome P450 2D6 (Homo sapiens, UniProt P10635); test: Inhibition of CYP2D6; assay type: ADME
Cytochrome P450 2D6, sequence (P10635 whole entry): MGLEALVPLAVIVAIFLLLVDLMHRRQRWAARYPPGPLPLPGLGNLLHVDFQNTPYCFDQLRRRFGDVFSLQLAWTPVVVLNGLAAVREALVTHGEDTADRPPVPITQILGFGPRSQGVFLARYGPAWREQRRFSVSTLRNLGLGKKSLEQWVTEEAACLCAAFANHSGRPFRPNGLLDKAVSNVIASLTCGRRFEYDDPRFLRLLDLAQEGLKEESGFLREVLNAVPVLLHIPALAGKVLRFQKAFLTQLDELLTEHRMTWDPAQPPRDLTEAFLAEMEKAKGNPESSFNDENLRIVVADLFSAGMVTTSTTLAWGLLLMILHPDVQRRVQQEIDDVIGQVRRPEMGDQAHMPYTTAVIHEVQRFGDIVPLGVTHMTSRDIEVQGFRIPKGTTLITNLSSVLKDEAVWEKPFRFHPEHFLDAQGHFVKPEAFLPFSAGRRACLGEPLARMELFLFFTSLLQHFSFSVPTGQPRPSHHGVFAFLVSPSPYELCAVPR

[13] = target: Cytochrome P450 3A4 (Homo sapiens, UniProt P08684); test: Inhibition of CYP3A4; assay type: ADME
Cytochrome P450 3A4, sequence (P08684 whole entry): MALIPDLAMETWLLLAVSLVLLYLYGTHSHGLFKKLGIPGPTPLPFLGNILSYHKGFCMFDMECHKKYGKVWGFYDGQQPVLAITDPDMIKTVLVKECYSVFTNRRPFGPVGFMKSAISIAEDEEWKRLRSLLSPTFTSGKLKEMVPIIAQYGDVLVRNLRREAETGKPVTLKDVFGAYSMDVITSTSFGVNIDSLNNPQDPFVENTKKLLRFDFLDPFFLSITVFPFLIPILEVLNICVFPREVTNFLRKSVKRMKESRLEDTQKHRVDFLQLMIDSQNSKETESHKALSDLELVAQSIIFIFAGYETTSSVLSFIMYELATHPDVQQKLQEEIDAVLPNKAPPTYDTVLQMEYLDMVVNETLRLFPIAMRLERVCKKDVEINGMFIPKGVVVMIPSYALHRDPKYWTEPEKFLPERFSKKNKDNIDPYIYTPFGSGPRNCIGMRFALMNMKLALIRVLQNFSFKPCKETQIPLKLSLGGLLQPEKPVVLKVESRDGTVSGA

[14] = target: Cytochrome P450 2C19 (Homo sapiens, UniProt P33261); test: Inhibition of CYP2C19; assay type: ADME
Cytochrome P450 2C19, sequence (P33261 whole entry): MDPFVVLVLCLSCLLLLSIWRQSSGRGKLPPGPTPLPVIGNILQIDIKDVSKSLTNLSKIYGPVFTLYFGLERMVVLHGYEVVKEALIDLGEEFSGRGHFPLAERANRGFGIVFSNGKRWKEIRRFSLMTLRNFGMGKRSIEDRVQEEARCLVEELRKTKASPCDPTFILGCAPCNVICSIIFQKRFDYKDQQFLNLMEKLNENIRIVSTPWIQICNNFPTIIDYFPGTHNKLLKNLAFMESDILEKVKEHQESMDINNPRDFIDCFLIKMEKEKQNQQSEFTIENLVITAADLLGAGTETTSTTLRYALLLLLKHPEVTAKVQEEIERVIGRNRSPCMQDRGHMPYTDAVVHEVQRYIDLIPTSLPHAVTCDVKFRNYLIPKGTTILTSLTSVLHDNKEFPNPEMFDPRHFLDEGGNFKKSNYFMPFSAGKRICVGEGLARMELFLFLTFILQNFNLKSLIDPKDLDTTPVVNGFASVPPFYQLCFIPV

[15] = Volume of distribution at steady state in mouse at 5 mg/kg, iv; assay type: ADME, organism-based; parameters: dose 5 mg/kg, route intravenous; details: in vivo, read-out: Vdss
[16] = Genotoxicity in Salmonella Typhimurium by Ames test in presence of S9 fractions; assay type: toxicity, S9 Fraction; details: salmonella enterica subsp. enterica serovar typhimurium
[17] = Oral bioavailability in mouse at 25 mg/kg; assay type: ADME, organism-based; details: in vivo
[18] = Physiological stability of the compound in simulated gastric fluids assessed as formation of 4-(8-amino-1-(8-fluoro-2-phenylquinolin-7-yl)imidazo[1,5-a]pyrazin-3-yl)cyclohexanecarboxylic acid at 2 uM; assay type: physicochemical; details: simulated gi fluid
[19] = Clearance in mouse at 2 mg/kg, iv; assay type: ADME, organism-based; parameters: dose 2 mg/kg, route intravenous; details: in vivo
[20] = Volume of distribution at steady state in mouse at 2 mg/kg, iv; assay type: ADME, organism-based; parameters: dose 2 mg/kg, route intravenous; details: in vivo, read-out: Vdss
[21] = Oral bioavailability in mouse at 5 mg/kg; assay type: ADME, organism-based; details: in vivo
[22] = Cmax in mouse at 5 mg/kg, po; assay type: ADME, organism-based; parameters: dose 5 mg/kg, route oral; details: in vivo
[23] = AUC in mouse at 5 mg/kg, po; assay type: ADME, organism-based; parameters: dose 5 mg/kg, route oral; details: plasma
[24] = Physiological stability of the compound in simulated intestinal fluid assessed as formation of 4-(8-amino-1-(8-fluoro-2-phenylquinolin-7-yl)imidazo[1,5-a]pyrazin-3-yl)cyclohexanecarboxylic acid; assay type: physicochemical; details: simulated gi fluid

Cytochrome P450 2C9, sequence (P11712 whole entry): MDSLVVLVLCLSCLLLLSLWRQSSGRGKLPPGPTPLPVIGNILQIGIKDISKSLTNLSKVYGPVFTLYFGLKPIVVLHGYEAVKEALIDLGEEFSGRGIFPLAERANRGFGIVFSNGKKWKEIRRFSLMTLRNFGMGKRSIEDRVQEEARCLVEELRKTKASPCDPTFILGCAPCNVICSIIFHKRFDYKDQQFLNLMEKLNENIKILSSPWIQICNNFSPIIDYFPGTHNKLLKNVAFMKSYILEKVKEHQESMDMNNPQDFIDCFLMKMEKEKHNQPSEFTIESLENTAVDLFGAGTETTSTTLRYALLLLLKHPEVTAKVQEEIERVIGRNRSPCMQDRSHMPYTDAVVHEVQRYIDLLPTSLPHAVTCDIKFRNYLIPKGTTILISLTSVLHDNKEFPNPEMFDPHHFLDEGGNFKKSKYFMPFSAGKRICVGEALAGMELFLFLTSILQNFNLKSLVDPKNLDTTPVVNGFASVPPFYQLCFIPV

Row | Structure (SMILES) | Papp [2] | clearance [4] | AUC [6] | Cmax [8] | Papp [9] | Vd [15] | bioavailability [17] | also measured
1 | Nc1nccn2c1c(-c1ccc3ccc(-c4ccccc4)nc3c1F)nc2[C@H]1CC[C@H](C(=O)Nc2nc3ccccc3[nH]2)CC1 | 538 ×10⁻⁶ cm/s | 1 mL/min/kg | 158000 ng·h/mL | 28000 nM | 766 ×10⁻⁶ cm/s | 0.43 L/kg | 50% | IC50 [1]: 9.8 µM; IC50 [3]: > 20 µM; Stability [5]: Stable; Activity [7]: Non-toxic; inhibition in vivo at 60 mg/kg [10]: 98%; Activity [11]: Non-toxic; IC50 [12]: > 20 µM; IC50 [13]: > 20 µM; IC50 [14]: > 20 µM; Activity [16]: Non-toxic; Stability [18]: Stable
2 | Nc1nccn2c1c(-c1ccc3ccc(-c4ccccc4)nc3c1F)nc2[C@H]1CC[C@H](C(=O)O)CC1 | > 1000 ×10⁻⁶ cm/s | 26 mL/min/kg | 7970 ng·h/mL | 5500 nM | > 1000 ×10⁻⁶ cm/s | 2.8 L/kg | 51% | –
3 | Nc1nccn2c1c(-c1ccc3ccc(-c4ccccc4)nc3c1F)nc2[C@H]1CC[C@H](CO)CC1 | 880 ×10⁻⁶ cm/s | – | – | – | > 1000 ×10⁻⁶ cm/s | – | – | clearance [19]: 197 mL/min/kg; Vd [20]: 7 L/kg; bioavailability [21]: 23%; Cmax [22]: 110 nM; AUC [23]: 100 ng·h/mL
4 | Nc1nccn2c1c(-c1ccc3ccc(-c4ccccc4)nc3c1F)nc2[C@H]1CC[C@H](C(N)=O)CC1 | 45 ×10⁻⁶ cm/s | 38 mL/min/kg | 3570 ng·h/mL | 1900 nM | 63 ×10⁻⁶ cm/s | 2.6 L/kg | 24% | –
5 | Nc1nccn2c1c(-c1ccc3ccc(-c4ccccc4)nc3c1F)nc2[C@H]1CC[C@H](C(=O)Nc2nncs2)CC1 | 73 ×10⁻⁶ cm/s | 73 mL/min/kg | 297 ng·h/mL | 130 nM | 86 ×10⁻⁶ cm/s | 3.2 L/kg | 5% | Stability [24]: Unstable
